Where two headings read alike, the source gives them in different places.
Assays:
[1] = tested on: Key Broadleaf Weed and Crop Species; assay: Post-Emergent Test II (Table 5); type: in vivo; details: post-emergence, 336 h; for pest or weed control at 70 g/ha: application rate 70 (kg ai/ha; footnote: g ai/ha); for pest or weed control at 140 g/ha: application rate 140 (kg ai/ha; footnote: g ai/ha)
Method in brief: (§1)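 Plants at first or second true-leaf stage, grown 7-21 days in greenhouse, were sprayed post-emergence at 187 L/ha with compounds in acetone/DMSO/water/crop oil/surfactant mixture at the high rate and ½× to 1/16× dilutions. Injury scored visually after 14 days, 0 (none) to 100% (complete kill), versus untreated plants.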

[2] = tested on: Key Grass and Sedge Weeds as well as Grass Crops; assay: Post-Emergent Test II (Table 6); type: in vivo; details: post-emergence, 336 h, 14 days after application; for pest or weed control at 70 g/ha: 70 g ai/ha; for pest or weed control at 140 g/ha: 140 g ai/ha
Method in brief: as §1

[3] = Abutilon theophrasti, ABUTH: velvetleaf (Abutilon theophrasti), read-out: Visual Growth Reduction (%) 14 Days After Application ABUTH
[4] = Amaranthus retroflexus, AMARE: redroot pigweed (Amaranthus retroflexus), read-out: Visual Growth Reduction (%) 14 Days After Application AMARE
[5] = Brassica napus, BRSSS: oilseed rape, canola (Brassica napus), read-out: Visual Growth Reduction (%) 14 Days After Application BRSSS
[6] = Chenopodium album, CHEAL: lambsquarters (Chenopodium album), read-out: Visual Growth Reduction (%) 14 Days After Application CHEAL
[7] = Euphorbia heterophylla, EPHHL: wild poinsettia (Euphorbia heterophylla), read-out: Visual Growth Reduction (%) 14 Days After Application EPHHL
[8] = Helianthus annuus, HELAN: sunflower (Helianthus annuus), read-out: Visual Growth Reduction (%) 14 Days After Application HELAN
[9] = Viola tricolor, VIOTR: wild pansy (Viola tricolor), read-out: Visual Growth Reduction (%) 14 Days After Application VIOTR
[10] = CYPSS, read-out: Visual Growth Reduction (%) 14 Days After Application CYPSS
[11] = DIGSA: crabgrass (Digitaria sanguinalis), read-out: Visual Growth Reduction (%) 14 Days After Application DIGSA
[12] = ECHSS, read-out: Visual Growth Reduction (%) 14 Days After Application ECHSS
[13] = ORYSS (crop), read-out: Visual Growth Reduction (%) 14 Days After Application ORYSS
[14] = SETFA: giant foxtail (Setaria faberi), read-out: Visual Growth Reduction (%) 14 Days After Application SETFA
[15] = SORVU: grain sorghum (Sorghum vulgare), read-out: Visual Growth Reduction (%) 14 Days After Application SORVU
[16] = TRZSS (crop), read-out: Visual Growth Reduction (%) 14 Days After Application TRZSS
[17] = ZEAMX: maize, corn (Zea mays), read-out: Visual Growth Reduction (%) 14 Days After Application ZEAMX

| SMILES | melting point | pest or weed control at 70 g/ha [1, 3] | pest or weed control at 140 g/ha [1, 3] | pest or weed control at 70 g/ha [1, 4] | pest or weed control at 70 g/ha [1, 5] | pest or weed control at 140 g/ha [1, 5] | pest or weed control at 70 g/ha [1, 6] | pest or weed control at 140 g/ha [1, 6] | pest or weed control at 70 g/ha [1, 7] | pest or weed control at 140 g/ha [1, 7] | pest or weed control at 70 g/ha [1, 8] | pest or weed control at 140 g/ha [1, 8] | pest or weed control at 70 g/ha [1, 9] | pest or weed control at 140 g/ha [1, 9] | pest or weed control at 70 g/ha [2, 10] | pest or weed control at 140 g/ha [2, 10] | pest or weed control at 70 g/ha [2, 11] | pest or weed control at 140 g/ha [2, 11] | pest or weed control at 70 g/ha [2, 12] | pest or weed control at 140 g/ha [2, 12] | other results |
| --- | --- | --- | --- | --- | --- | --- | --- | --- | --- | --- | --- | --- | --- | --- | --- | --- | --- | --- | --- | --- | --- |
| COC(=O)c1nc(-c2ccc(OC)nc2Cl)c(F)c(N)c1Cl [Compound 88, methyl 4-amino-2′,5-dichloro-3-fluoro-6′-methoxy-[2,3′-bipyridine]-6-carboxylate] | 164 to 165 °C | 75 to 84% | 95 to 100% | 85 to 94% | 85 to 94% | 85 to 94% | 95 to 100% | 95 to 100% | 0 to 29% | 0 to 29% | 75 to 84% | 85 to 94% | 0 to 29% | 0 to 29% | 0 to 29% | 0 to 29% | 0 to 29% | 0 to 29% | 0 to 29% | 0 to 29% | pest or weed control at 70 g/ha [2, 13]: 0 to 29%; pest or weed control at 140 g/ha [2, 13]: 0 to 29%; pest or weed control at 70 g/ha [2, 14]: 0 to 29%; pest or weed control at 140 g/ha [2, 14]: 45 to 59%; pest or weed control at 70 g/ha [2, 15]: 0 to 29%; pest or weed control at 140 g/ha [2, 15]: 0 to 29%; pest or weed control at 70 g/ha [2, 16]: 0 to 29%; pest or weed control at 140 g/ha [2, 16]: 0 to 29%; pest or weed control at 70 g/ha [2, 17]: 0 to 29%; pest or weed control at 140 g/ha [2, 17]: 0 to 29% |
| COC(=O)c1nc(-c2ccc(F)c(F)c2C)cc(N)c1Cl [Compound 69] | 120 to 126 °C | 95 to 100% | 95 to 100% | 95 to 100% | 85 to 94% | 95 to 100% | 95 to 100% | 95 to 100% | 0 to 29% | 0 to 29% | 85 to 94% | 85 to 94% | 0 to 29% | 0 to 29% | 45 to 59% | 95 to 100% | 0 to 29% | 0 to 29% | 0 to 29% | 0 to 29% | pest or weed control at 140 g/ha [1, 4]: 95 to 100%; pest or weed control at 70 g/ha [2, 13]: 0 to 29%; pest or weed control at 140 g/ha [2, 13]: 0 to 29%; pest or weed control at 70 g/ha [2, 14]: 0 to 29%; pest or weed control at 140 g/ha [2, 14]: 0 to 29%; pest or weed control at 70 g/ha [2, 15]: 0 to 29%; pest or weed control at 140 g/ha [2, 15]: 0 to 29%; pest or weed control at 70 g/ha [2, 16]: 0 to 29%; pest or weed control at 140 g/ha [2, 16]: 0 to 29%; pest or weed control at 70 g/ha [2, 17]: 0 to 29%; pest or weed control at 140 g/ha [2, 17]: 0 to 29% |
| COC(=O)c1nc(-c2ccc(F)nc2)c(F)c(N)c1Cl [Compound 23] | 167 to 168 °C | 75 to 84% | 85 to 94% | 95 to 100% | 45 to 59% | 75 to 84% | 95 to 100% | 95 to 100% | 75 to 84% | 85 to 94% | 85 to 94% | 85 to 94% | 30 to 44% | 45 to 59% | 0 to 29% | 0 to 29% | 30 to 44% | 45 to 59% | 60 to 74% | 75 to 84% | pest or weed control at 140 g/ha [1, 4]: 95 to 100%; pest or weed control at 70 g/ha [2, 13]: 0 to 29%; pest or weed control at 140 g/ha [2, 13]: 0 to 29%; pest or weed control at 70 g/ha [2, 15]: 0 to 29%; pest or weed control at 140 g/ha [2, 15]: 0 to 29%; pest or weed control at 70 g/ha [2, 16]: 0 to 29%; pest or weed control at 140 g/ha [2, 16]: 0 to 29%; pest or weed control at 70 g/ha [2, 17]: 0 to 29%; pest or weed control at 140 g/ha [2, 17]: 45 to 59% |
